According to patent US12643871B2, “Aryl formamide compound containing chiral sulfur oxide or salt thereof, preparation method, herbicidal composition and use thereof” (Qingdao Kingagroot Chemical Compound Co., Ltd., priority 2019, dated 2026):

Assays:
Type in all cases: in vivo
Digitaria sanguinalis [1] = assay: Comparison experiment (post-emergence) against racemate / S configuration; conditions: Digitaria sanguinalis, post-emergence, Table 6, post-seedling test conditions
From the text: (§1) The above growth control rates are fresh weight control rates.
(§2) Experiment on weeding effect in post-emergence stage: monocotyledonous and dicotyledonous weed seeds (Descurainia sophia, Capsella bursa-pastoris, Galium aparine, Stellaria media, Lithospermum arvense, Rorippa indica, Alopecurus aequalis, Beckmannia syzigachne, Sclerochloa dura, Phleum paniculatum, Bromus japonicus, Aegilops tauschii, Phalaris arundinacea, Amaranthus retroflexus, Chenopodiaceae, Commelina communis, Sonchus arvensis, convolvulus arvensis, Cirsium setosum, Solanum nigrum, Acalypha australis, Digitaria sanguinalis, Echinochloa crusgalli, Setaria viridis, Setaria glauca, Leptochloa chinensis, Monochoria vaginalis, Sagittaria trifolia, Scirpus juncoides, Cyperus rotundus, Cyperus iria, Cyperus difformis, Fimbristylis, Portulaca oleracea, Xanthium sibiricum, Pharbitis nil) and major crop seeds (wheat, corn, rice, soybean, cotton, oilseed rape, millet, sorghum, potato, sesame, ricinus) were placed in plastic pots filled with soil, then covered with 0.5-2 cm of soil, allowed to grow in a good greenhouse environment. After 2 weeks of sowing, the test plants were treated in the 2 leaf stage. The tested compounds of the present invention were respectively dissolved in acetone, then added with Tween 80 and 1.5 liter/ha of emulsifiable concentrate of methyl oleate as synergist, diluted with a certain amount of water to obtain a solution with a certain concentration, and sprayed with a spray tower onto the plants. After the application, the plants were cultured for 15 days in the greenhouse, and then the experimental results of the weeding were counted. The doses of the used compounds were 500, 250, 125, 60, 30, 15 g/ha, and the averages were obtained by repeating for three times.
(§3) If there is no clear marker, the post-seedling test conditions are the same as above, and the experimental results are shown in Tables 4-7.

Alopecurus japonicas = assay: as above; conditions: Table 6, post-seedling test conditions
From the text: as §1, §2, §3

Leptochloa chinensis = assay: as above; conditions: Leptochloa chinensis (4.5 leaf), 16DAA
Abutilon theophrasti = assay: as above; conditions: Abutilon theophrasti (3.5 leaf), 16DAA
Green Setaria viridis = assay: as above; conditions: for Results of comparison experiment (16DAA), weed control: Setaria viridis (4 leaf)
Digitaria sanguinalis [2] = assay: as above; conditions: Digitaria sanguinalis (3.5 leaf), 16DAA
Sinapis arvensis = assay: Comparison experiment (post-emergence, Table 7); conditions: Sinapis arvensis (3.5 leaf)
From the text: as §3

Capsella bursa-pastoris = assay: Comparison experiment (post-emergence, Table 7); conditions: Capsella bursa-pastoris (10-11 leaf)
From the text: as §3

Galium aparine = assay: Comparison experiment (post-emergence, Table 7); conditions: Galium aparine (5 branches)
From the text: as §3

Amaranthus retroflexus = assay: Comparison experiment (post-emergence, Table 7); conditions: Amaranthus retroflexus (6 leaf)
From the text: as §3

Veronica didyma = assay: Comparison experiment (post-emergence, Table 7); conditions: Veronica didyma (2 branches)
From the text: as §3

Echinochloa crusgali = assay: Comparison experiment (post-emergence, Table 7); conditions: Echinochloa crusgali (3 leaf)
From the text: as §3

Malachium aquaticum = assay: Comparison experiment (post-emergence, Table 7); conditions: Malachium aquaticum (2 branches)
From the text: as §3

Descurainia sophia = assay: Comparison experiment (post-emergence, Table 7); conditions: Descurainia sophia (12 leaf)
From the text: as §3

Corn-Zhengdan 958 = assay: Comparison experiment (post-emergence, Table 7), crop safety on corn; conditions: Corn-Zhengdan 958 (3.5 leaf)
From the text: as §3

CC[S@@+]([O-])c1c(C(F)(F)F)ccc(C(=O)Nc2nnc(C)o2)c1SC [Compound 548]
100%: pest or weed control at 30 g/ha (Digitaria sanguinalis [1]) | Results of comparison experiment (16DAA), weed control (Abutilon theophrasti; 48 g/ha) | Results of comparison experiment, Green Setaria viridis (30 g/ha) (Green Setaria viridis; 30 g/ha, Table 6, post-seedling test conditions) | Results of comparison experiment (16DAA), weed control (Green Setaria viridis; 24 g/ha) | Results of comparison experiment (16DAA), weed control (Green Setaria viridis; 48 g/ha) | Results of comparison experiment (16DAA), weed control (Digitaria sanguinalis [2]; 48 g/ha) | Results of comparison experiment (16DAA), weed control (Capsella bursa-pastoris; 48 g/ha) | Results of comparison experiment (16DAA), weed control (Amaranthus retroflexus; 48 g/ha) | Results of comparison experiment (16DAA), weed control (Echinochloa crusgali; 48 g/ha) | Results of comparison experiment (16DAA), weed control (Malachium aquaticum; 24 g/ha) | Results of comparison experiment (16DAA), weed control (Malachium aquaticum; 48 g/ha) | Results of comparison experiment (16DAA), weed control (Descurainia sophia; 24 g/ha) | Results of comparison experiment (16DAA), weed control (Descurainia sophia; 48 g/ha)
20%: Results of comparison experiment (16DAA), weed control (Leptochloa chinensis; 6 g/ha) | Results of comparison experiment (16DAA), weed control (Green Setaria viridis; 3 g/ha) | Results of comparison experiment (16DAA), weed control (Galium aparine; 12 g/ha) | Results of comparison experiment (16DAA), weed control (Galium aparine; 24 g/ha) | Results of comparison experiment (16DAA), weed control (Veronica didyma; 6 g/ha) | Results of comparison experiment (16DAA), weed control (Veronica didyma; 12 g/ha)
50%: Results of comparison experiment, Alopecurus japonicas (120 g/ha) (Alopecurus japonicas) | Results of comparison experiment (16DAA), weed control (Leptochloa chinensis; 12 g/ha) | Results of comparison experiment (16DAA), weed control (Abutilon theophrasti; 12 g/ha) | Results of comparison experiment (16DAA), weed control (Sinapis arvensis; 12 g/ha) | Results of comparison experiment (16DAA), weed control (Capsella bursa-pastoris; 12 g/ha) | Results of comparison experiment (16DAA), weed control (Veronica didyma; 24 g/ha) | Results of comparison experiment (16DAA), weed control (Echinochloa crusgali; 3 g/ha) | Results of comparison experiment (16DAA), weed control (Echinochloa crusgali; 6 g/ha) | Results of comparison experiment (16DAA), weed control (Malachium aquaticum; 6 g/ha) | Results of comparison experiment (16DAA), weed control (Descurainia sophia; 3 g/ha)
60%: Results of comparison experiment (16DAA), weed control (Digitaria sanguinalis [2]; 12 g/ha) | Results of comparison experiment (16DAA), weed control (Sinapis arvensis; 24 g/ha) | Results of comparison experiment (16DAA), weed control (Amaranthus retroflexus; 12 g/ha)
10%: Results of comparison experiment (16DAA), weed control (Capsella bursa-pastoris; 3 g/ha) | Results of comparison experiment (16DAA), weed control (Galium aparine; 3 g/ha) | Results of comparison experiment (16DAA), weed control (Galium aparine; 6 g/ha) | Results of comparison experiment (16DAA), weed control (Veronica didyma; 3 g/ha)
30%: Results of comparison experiment (16DAA), weed control (Abutilon theophrasti; 3 g/ha) | Results of comparison experiment (16DAA), weed control (Sinapis arvensis; 3 g/ha) | Results of comparison experiment (16DAA), weed control (Capsella bursa-pastoris; 6 g/ha) | Results of comparison experiment (16DAA), weed control (Galium aparine; 48 g/ha) | Results of comparison experiment (16DAA), weed control (Amaranthus retroflexus; 3 g/ha) | Results of comparison experiment (16DAA), weed control (Malachium aquaticum; 3 g/ha)
0%: Results of comparison experiment (16DAA), weed control (Leptochloa chinensis; 3 g/ha) | Results of comparison experiment (16DAA), crop damage (Corn-Zhengdan 958; 3 g/ha) | Results of comparison experiment (16DAA), crop damage (Corn-Zhengdan 958; 6 g/ha) | Results of comparison experiment (16DAA), crop damage (Corn-Zhengdan 958; 12 g/ha) | Results of comparison experiment (16DAA), crop damage (Corn-Zhengdan 958; 24 g/ha) | Results of comparison experiment (16DAA), crop damage (Corn-Zhengdan 958; 48 g/ha)
40%: Results of comparison experiment (16DAA), weed control (Abutilon theophrasti; 6 g/ha) | Results of comparison experiment (16DAA), weed control (Green Setaria viridis; 6 g/ha) | Results of comparison experiment (16DAA), weed control (Digitaria sanguinalis [2]; 3 g/ha) | Results of comparison experiment (16DAA), weed control (Digitaria sanguinalis [2]; 6 g/ha) | Results of comparison experiment (16DAA), weed control (Sinapis arvensis; 6 g/ha) | Results of comparison experiment (16DAA), weed control (Amaranthus retroflexus; 6 g/ha)
80%: Results of comparison experiment (16DAA), weed control (Leptochloa chinensis; 48 g/ha) | Results of comparison experiment (16DAA), weed control (Green Setaria viridis; 12 g/ha) | Results of comparison experiment (16DAA), weed control (Digitaria sanguinalis [2]; 24 g/ha) | Results of comparison experiment (16DAA), weed control (Sinapis arvensis; 48 g/ha) | Results of comparison experiment (16DAA), weed control (Amaranthus retroflexus; 24 g/ha) | Results of comparison experiment (16DAA), weed control (Echinochloa crusgali; 24 g/ha) | Results of comparison experiment (16DAA), weed control (Descurainia sophia; 12 g/ha)
70%: Results of comparison experiment (16DAA), weed control (Leptochloa chinensis; 24 g/ha) | Results of comparison experiment (16DAA), weed control (Abutilon theophrasti; 24 g/ha) | Results of comparison experiment (16DAA), weed control (Capsella bursa-pastoris; 24 g/ha) | Results of comparison experiment (16DAA), weed control (Veronica didyma; 48 g/ha) | Results of comparison experiment (16DAA), weed control (Echinochloa crusgali; 12 g/ha) | Results of comparison experiment (16DAA), weed control (Malachium aquaticum; 12 g/ha) | Results of comparison experiment (16DAA), weed control (Descurainia sophia; 6 g/ha)
